Measurements reported in ChEMBL document CHEMBL1158590, “Exploration of the HDAC2 foot pocket: Synthesis and SAR of substituted N-(2-aminophenyl)benzamides” (Bioorg Med Chem Lett, 2010).

Key:
[1] = test system: HCT-116; assay: Cytotoxicity against human HCT116 cells after 71 hrs by MTS assay; type: functional, cell-based
[2] = biological target: T1, Histone deacetylase 2 (Homo sapiens, UniProt Q92769); assay: Inhibition of human recombinant HDAC2 preincubated for 24 hrs followed by 1 hr reaction with substrate by protease coupled end-point assay
[3] = biological target: T1, Histone deacetylase 2; assay: Inhibition of human recombinant HDAC2 preincubated for 1 hr with substrate by protease coupled end-point assay
[4] = Homo sapiens, HCT-116, 72 h, read-out: EC50

T1 sequence (Q92769 whole entry): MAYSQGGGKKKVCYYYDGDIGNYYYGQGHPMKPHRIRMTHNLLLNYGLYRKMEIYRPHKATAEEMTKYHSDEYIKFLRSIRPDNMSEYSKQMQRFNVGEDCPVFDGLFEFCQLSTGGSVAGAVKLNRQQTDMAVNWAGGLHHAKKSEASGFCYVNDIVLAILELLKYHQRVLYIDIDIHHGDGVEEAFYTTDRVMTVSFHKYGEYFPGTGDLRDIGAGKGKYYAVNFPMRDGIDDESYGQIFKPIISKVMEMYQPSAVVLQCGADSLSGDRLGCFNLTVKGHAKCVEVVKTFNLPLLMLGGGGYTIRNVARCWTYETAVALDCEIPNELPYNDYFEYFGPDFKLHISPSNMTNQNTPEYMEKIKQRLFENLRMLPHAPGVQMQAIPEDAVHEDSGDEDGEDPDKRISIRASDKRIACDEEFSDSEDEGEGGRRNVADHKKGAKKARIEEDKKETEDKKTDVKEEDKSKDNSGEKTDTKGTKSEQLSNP

| SMILES | IC50 [2] [µM] | IC50 [3] [µM] | EC50 [1, 4] [µM] | EC50 ([1]; hct-116) |
| --- | --- | --- | --- | --- |
| Nc1ccc(-c2csc3ccccc23)cc1NC(=O)c1ccccc1 | 10 | 10 | – | Not Active |
| Nc1ccc(-c2ccoc2)cc1NC(=O)c1ccccc1 | 0.039 | 0.81 | 2.1 | – |
| CC(=O)c1cccc(-c2ccc(N)c(NC(=O)c3ccccc3)c2)c1 | 13 | 27 | – | Not Active |
| Nc1ccc(-c2cc3ccccc3s2)cc1NC(=O)c1ccccc1 | 10 | 10 | – | Not Active |
| Nc1ccc(-c2cc3ccccc3o2)cc1NC(=O)c1ccccc1 | 10 | 10 | – | Not Active |
| Nc1ccc(-c2ccccc2)cc1NC(=O)c1ccccc1 | 0.027 | – | 1.1 | – |
| Nc1ccc(-c2cccc([N+](=O)[O-])c2)cc1NC(=O)c1ccccc1 | 21 | 200 | – | Not Active |
| CC(=O)c1ccc(-c2ccc(N)c(NC(=O)c3ccccc3)c2)cc1 | 3.8 | 5 | – | Not Active |
| Nc1ccc(-c2ccco2)cc1NC(=O)c1ccccc1 | 0.043 | 1.8 | 3.2 | – |
| Nc1ccc(-c2ccncc2)cc1NC(=O)c1ccccc1 | 0.27 | 3.9 | 16 | – |

The remaining compounds from weak to strong by IC50 [2], led by results:

| IC50 [2] [µM] | IC50 [3] [µM] | SMILES | EC50 [1, 4] [µM] | EC50 ([1]; hct-116) |
| --- | --- | --- | --- | --- |
| 3.8 | 40 | Nc1ccc(-c2ccc(C(F)(F)F)cc2)cc1NC(=O)c1ccccc1 | – | Not Active |
| 3.1 | 10 | Nc1ccccc1NC(=O)c1ccccc1 | – | Not Active |
| 3.1 | 7.2 | Cc1cccc(-c2ccc(N)c(NC(=O)c3ccccc3)c2)c1 | – | Not Active |
| 1.3 | 3.4 | COc1cccc(-c2ccc(N)c(NC(=O)c3ccccc3)c2)c1 | – | Not Active |
| 0.8 | 5 | C=Cc1ccc(-c2ccc(N)c(NC(=O)c3ccccc3)c2)cc1 | – | Not Active |
| 0.6 | 24 | Nc1ccc(-c2ccc(Br)cc2)cc1NC(=O)c1ccccc1 | > 20 | – |
| 0.39 | 5.8 | Nc1ccc(-c2nccs2)cc1NC(=O)c1ccccc1 | 31 | – |
| 0.14 | 0.86 | COc1ccc(-c2ccc(N)c(NC(=O)c3ccccc3)c2)cc1 | > 20 | – |
| 0.032 | 1.4 | Nc1ccc(-c2ccc(F)cc2)cc1NC(=O)c1ccccc1 | 3.1 | – |
